Experimental data: US10556907B2 (AbbVie Inc., priority 2015, dated 2020)
Where a name gives a salt, the structure may show the parent alone.

Assays:
Experiment in all cases: Method 1: intracellular Ca2+ release (FLIPR, Calcium 5) in recombinant CHO-K1 cells
Type in all cases: cell-based
[1] = molecular target: T1, human S1PR1 receptor (Homo sapiens, UniProt P21453); conditions: (1): determined with method 1; read-out: S1P1 EC50
T1 construct: host or cells: CHO-K1
Method in brief: (§1)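 Agonist EC50; CHO-K1 + Gq/i5 + aequorin; Calcium 5 dye 1 h 37 °C, 45 min RT; serial-dilution compound add; FLIPR read; normalized to phospho-fingolimod.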

[2] = molecular target: T2, human S1PR4 receptor (Homo sapiens, UniProt O95977); conditions: (1): determined with method 1; read-out: S1P4 EC50
T2 construct: host or cells: CHO-K1
T2 sequence (O95977 1-384): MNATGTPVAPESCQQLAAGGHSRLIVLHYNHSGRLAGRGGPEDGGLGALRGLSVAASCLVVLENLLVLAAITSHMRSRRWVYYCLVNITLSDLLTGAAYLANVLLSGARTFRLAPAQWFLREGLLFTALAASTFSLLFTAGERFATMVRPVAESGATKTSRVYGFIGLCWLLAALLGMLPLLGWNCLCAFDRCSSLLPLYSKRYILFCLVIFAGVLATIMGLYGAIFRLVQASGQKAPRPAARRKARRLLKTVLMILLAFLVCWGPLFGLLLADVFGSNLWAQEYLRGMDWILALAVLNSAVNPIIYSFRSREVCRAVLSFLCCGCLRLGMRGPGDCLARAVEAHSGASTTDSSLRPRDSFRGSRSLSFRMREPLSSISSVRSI
Method in brief: as §1

[3] = molecular target: T3, human S1PR5 receptor (Homo sapiens, UniProt Q9H228); conditions: agonist potency, determined with method 1 (symbols A-D); read-out: S1P5 EC50 range
T3 construct: host or cells: CHO-K1
Method in brief: as §1

T1 sequence (P21453 whole entry): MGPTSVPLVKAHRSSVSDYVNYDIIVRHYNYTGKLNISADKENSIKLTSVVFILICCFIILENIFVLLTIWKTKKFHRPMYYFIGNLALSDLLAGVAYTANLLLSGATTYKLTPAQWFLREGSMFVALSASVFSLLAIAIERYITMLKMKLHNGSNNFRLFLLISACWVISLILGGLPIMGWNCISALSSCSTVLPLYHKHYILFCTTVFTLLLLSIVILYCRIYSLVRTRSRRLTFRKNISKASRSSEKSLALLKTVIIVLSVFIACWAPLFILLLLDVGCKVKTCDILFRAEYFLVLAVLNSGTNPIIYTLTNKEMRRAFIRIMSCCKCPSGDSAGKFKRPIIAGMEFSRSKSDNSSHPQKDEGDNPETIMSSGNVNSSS
T3 sequence (Q9H228 whole entry): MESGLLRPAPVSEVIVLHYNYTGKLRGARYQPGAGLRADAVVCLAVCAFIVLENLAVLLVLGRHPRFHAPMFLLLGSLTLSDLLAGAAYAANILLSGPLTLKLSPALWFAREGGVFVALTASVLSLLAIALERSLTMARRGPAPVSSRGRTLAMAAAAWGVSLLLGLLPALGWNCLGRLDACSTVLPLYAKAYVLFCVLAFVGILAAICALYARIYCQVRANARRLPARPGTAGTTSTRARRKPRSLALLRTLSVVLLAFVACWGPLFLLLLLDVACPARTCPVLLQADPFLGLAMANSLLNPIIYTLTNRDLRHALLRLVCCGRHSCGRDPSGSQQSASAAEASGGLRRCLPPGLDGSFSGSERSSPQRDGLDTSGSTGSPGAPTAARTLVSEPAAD

EC50 [1] [µM] | EC50 [2] [µM] | EC50 [3] [µM] | SMILES
> 1 | > 1 | 0.1 to 1 | CCc1cccc(Cl)c1COc1nc2c(cc1F)CN(C1CC(C(=O)O)C1)CC2 (stereo not drawn) [Compound 183, 3-(2-((2-chloro-6-ethylbenzyl)oxy)-3-fluoro-7,8-dihydro-1,6-naphthyridin-6(5H)-yl)cyclobutanecarboxylic acid]
> 1 | > 1 | 0.01 to 0.1 | Cc1cc(-c2ncc3c(n2)CCN(C[C@@H](C)CC(=O)O)C3)ccc1OCc1ccc(Cl)cc1 [Compound 270, (S)-4-(2-(4-((4-chlorobenzyl)oxy)-3-methylphenyl)-7,8-dihydropyrido[4,3-d]pyrimidin-6(5H)-yl)-3-methylbutanoic acid]
> 1 | > 1 | 0.1 to 1 | Cc1ccc(COc2ccc(-c3ncc4c(n3)CCN(CC(C)CC(=O)O)C4)cc2C)cc1 (stereo not drawn) [Compound 301, 3-methyl-4-[2-[3-methyl-4-(p-tolylmethoxy)phenyl]-7,8-dihydro-5H-pyrido[4,3-d]pyrimidin-6-yl]butanoic acid 2,2,2-trifluoroacetic acid salt]
> 1 | > 1 | 0.01 to 0.1 | C[C@@H](CC(=O)O)CN1CCc2nc(-c3ccc(CCc4ccc(Cl)cc4)cc3)ncc2C1 [Compound 278, (S)-4-(2-(4-(4-chlorophenethyl)phenyl)-7,8-dihydropyrido[4,3-d]pyrimidin-6(5H)-yl)-3-methylbutanoic acid]
> 1 | > 1 | 0.1 to 1 | CC(CC(=O)O)CN1CCc2nc(-c3ccc(C4CC4c4cccc(Cl)c4)cc3)ncc2C1 (stereo not drawn) [Compound 293, 4-(2-(4-(2-(3-chlorophenyl)cyclopropyl)phenyl)-7,8-dihydropyrido[4,3-d]pyrimidin-6(5H)-yl)-3-methylbutanoic acid]
> 1 | > 1 | 0.01 to 0.1 | Cc1cc(-c2ncc3c(n2)CCN(CC(C)CC(=O)O)C3)ccc1OCc1cccc(C(F)(F)F)c1C (stereo not drawn) [Compound 273, 3-methyl-4-(2-(3-methyl-4-((2-methyl-3-(trifluoromethyl)benzyl)oxy)phenyl)-7,8-dihydropyrido[4,3-d]pyrimidin-6(5H)-yl)butanoic acid]
> 1 | > 1 | 0.01 to 0.1 | Cc1cccc(C)c1COc1ccc(-c2ncc3c(n2)CCN(CC(C)CC(=O)O)C3)c(F)c1 (stereo not drawn) [Compound 276, 4-[2-[4-[(2,6-dimethylphenyl)methoxy]-2-fluoro-phenyl]-7,8-dihydro-5H-pyrido[4,3-d]pyrimidin-6-yl]-3-methyl-butanoic acid 2,2,2-trifluoroacetic acid salt]
> 1 | > 1 | 0.1 to 1 | O=C(O)CC1CC(N2CCc3nc(-c4ccc(OCc5cc(Cl)cc(Cl)c5)cc4)ncc3C2)C1 (stereo not drawn) [Compound 5, 2-(3-(2-(4-((3,5-dichlorobenzyl)oxy)phenyl)-7,8-dihydropyrido[4,3-d]pyrimidin-6(5H)-yl)cyclobutyl)acetic acid]
> 1 | > 1 | 0.1 to 1 | Cc1cc(-c2ncc3c(n2)CCN(C[C@H](C)CC(=O)O)C3)ccc1OCc1ccccc1 [Compound 319, (R)-4-(2-(4-(benzyloxy)-3-methylphenyl)-7,8-dihydropyrido[4,3-d]pyrimidin-6(5H)-yl)-3-methylbutanoic acid]
> 1 | > 1 | 0.1 to 1 | Cc1cc(-c2ncc3c(n2)CCN(CC(C)CC(=O)O)C3)ccc1OCc1ccccc1C(F)(F)F (stereo not drawn) [Compound 309, 3-methyl-4-[2-[3-methyl-4-[[2-(trifluoromethyl)phenyl]methoxy]phenyl]-7,8-dihydro-5H-pyrido[4,3-d]pyrimidin-6-yl]butanoic acid 2,2,2-trifluoroacetic acid salt]
> 1 | > 1 | 1 to 10 | CC(CC(=O)O)CN1CCc2nc(-c3ccc(C4CC4c4ccc(Cl)cc4)cc3)ncc2C1 (stereo not drawn) [Compound 323, 4-(2-(4-(2-(4-chlorophenyl)cyclopropyl)phenyl)-7,8-dihydropyrido[4,3-d]pyrimidin-6(5H)-yl)-3-methylbutanoic acid]
> 1 | > 1 | 0.1 to 1 | CCc1ccccc1COc1ccc(-c2ncc3c(n2)CCN(CC(C)CC(=O)O)C3)c(F)c1 (stereo not drawn) [Compound 296, 4-[2-[4-[(2-ethylphenyl)methoxy]-2-fluoro-phenyl]-7,8-dihydro-5H-pyrido[4,3-d]pyrimidin-6-yl]-3-methyl-butanoic acid 2,2,2-trifluoroacetic acid salt]
> 1 | > 1 | 0.1 to 1 | CC(CC(=O)O)CN1CCc2nc(-c3ccc(OCc4ccc(F)cc4)cc3F)ncc2C1 (stereo not drawn) [Compound 298, 4-[2-[2-fluoro-4-[(4-fluorophenyl)methoxy]phenyl]-7,8-dihydro-5H-pyrido[4,3-d]pyrimidin-6-yl]-3-methyl-butanoic acid 2,2,2-trifluoroacetic acid salt]
> 1 | > 1 | < 0.01 | Cc1cc(-c2ncc3c(n2)CCN(CC(C)CC(=O)O)C3)ccc1OCc1cccc(F)c1F (stereo not drawn) [Compound 256, 4-(2-(4-((2,3-difluorobenzyl)oxy)-3-methylphenyl)-7,8-dihydropyrido[4,3-d]pyrimidin-6(5H)-yl)-3-methylbutanoic acid]
> 1 | > 1 | 1 to 10 | CC(CC(=O)O)CN1CCc2nc(C3CC(OCc4ccccc4)C3)ncc2C1 (stereo not drawn) [Compound 333, 4-(2-(3-(benzyloxy)cyclobutyl)-7,8-dihydropyrido[4,3-d]pyrimidin-6(5H)-yl)-3-methylbutanoic acid]
> 1 | < 1 | 0.1 to 1 | CCc1ccccc1COc1ccc(-c2ncc3c(n2)CCN(CC(C)CC(=O)O)C3)cc1C (stereo not drawn) [Compound 308, 4-[2-[4-[(2-ethylphenyl)methoxy]-3-methyl-phenyl]-7,8-dihydro-5H-pyrido[4,3-d]pyrimidin-6-yl]-3-methyl-butanoic acid 2,2,2-trifluoroacetic acid salt]
> 1 | > 1 | 0.01 to 0.1 | Cc1cc(-c2ncc3c(n2)CCN(CC(C)CC(=O)O)C3)ccc1OCc1c(C)cccc1C (stereo not drawn) [Compound 274, 4-[2-[4-[(2,6-dimethylphenyl)methoxy]-3-methyl-phenyl]-7,8-dihydro-5H-pyrido[4,3-d]pyrimidin-6-yl]-3-methyl-butanoic acid 2,2,2-trifluoroacetic acid salt]
> 1 | > 1 | 0.01 to 0.1 | O=C(O)CN1CCc2nc(-c3ccc(OCc4cccc(F)c4)cc3)ncc2C1 [Compound 27, 2-(2-(4-((3-fluorobenzyl)oxy)phenyl)-7,8-dihydropyrido[4,3-d]pyrimidin-6(5H)-yl)acetic acid]
> 1 | < 1 | 0.1 to 1 | Cc1ccccc1COc1ccc(-c2ncc3c(n2)CCN(C[C@H](C)CC(=O)O)C3)cc1C [Compound 303]
> 1 | > 1 | 0.1 to 1 | O=C(O)CN1CCc2nc(-c3ccc(OCc4ccc(Cl)cc4)cc3)ncc2C1 [Compound 29, 2-(2-(4-((4-chlorobenzyl)oxy)phenyl)-7,8-dihydropyrido[4,3-d]pyrimidin-6(5H)-yl)acetic acid]
> 1 | < 1 | 0.01 to 0.1 | O=C(O)CN1CCc2nc(-c3ccc(OCc4cccc(F)c4F)cc3)ncc2C1 [Compound 28, 2-(2-(4-((2,3-difluorobenzyl)oxy)phenyl)-7,8-dihydropyrido[4,3-d]pyrimidin-6(5H)-yl)acetic acid]
> 1 | > 1 | 0.1 to 1 | Cc1ccc(COc2ccc(-c3ncc4c(n3)CCN(CC(C)CC(=O)O)C4)c(F)c2)c(C)c1 (stereo not drawn) [Compound 304, 4-[2-[4-[(2,4-dimethylphenyl)methoxy]-2-fluoro-phenyl]-7,8-dihydro-5H-pyrido[4,3-d]pyrimidin-6-yl]-3-methyl-butanoic acid 2,2,2-trifluoroacetic acid salt]
> 1 | > 1 | < 0.01 | CC(CC(=O)O)CN1CCc2nc(-c3ccc(OCc4cccc(Cl)c4)cc3)cnc2C1 (stereo not drawn) [Compound 209, 4-(2-(4-((3-chlorobenzyl)oxy)phenyl)-7,8-dihydropyrido[3,4-b]pyrazin-6(5H)-yl)-3-methylbutanoic acid]
> 1 | > 1 | 0.1 to 1 | Cc1ccc(COc2ccc(-c3ncc4c(n3)CCN(CC(C)CC(=O)O)C4)cc2C)c(C)c1 (stereo not drawn) [Compound 305, 4-[2-[4-[(2,4-dimethylphenyl)methoxy]-3-methyl-phenyl]-7,8-dihydro-5H-pyrido[4,3-d]pyrimidin-6-yl]-3-methyl-butanoic acid 2,2,2-trifluoroacetic acid salt]
> 1 | > 1 | 0.1 to 1 | CC(C(=O)O)N1CCc2nc(-c3ccc(OCc4cccc(Cl)c4)cc3)ncc2C1 (stereo not drawn) [Compound 317, 2-(2-(4-((3-chlorobenzyl)oxy)phenyl)-7,8-dihydropyrido[4,3-d]pyrimidin-6(5H)-yl)propanoic acid]
